# Results as given in ChEMBL document CHEMBL1926576, “Fragment based lead discovery of small molecule inhibitors for the EPHA4 receptor tyrosine kinase” (Eur J Med Chem, 2012).
# Tests used:
# [1] = target: Tyrosine-protein kinase ABL1 (Homo sapiens) (UniProt P00519); assay: Inhibition of ABL assessed as residual activity at 10 uM using [33P-ATP] by radiometric filter binding assay
# [2] = target: Dual specificity tyrosine-phosphorylation-regulated kinase 1A (Homo sapiens) (UniProt Q13627); assay: Inhibition of DYRK1A assessed as residual activity at 10 uM using [33P-ATP] by radiometric filter binding assay
# [3] = target: Ribosomal protein S6 kinase alpha-3 (Homo sapiens) (UniProt P51812); assay: Inhibition of RSK2 assessed as residual activity at 10 uM using [33P-ATP] by radiometric filter binding assay
# [4] = target: High affinity nerve growth factor receptor (Homo sapiens) (UniProt P04629); assay: Inhibition of TrkA assessed as residual activity at 10 uM using [33P-ATP] by radiometric filter binding assay
# Chain of High affinity nerve growth factor receptor (Homo sapiens) (P04629 33-796 limits assumed): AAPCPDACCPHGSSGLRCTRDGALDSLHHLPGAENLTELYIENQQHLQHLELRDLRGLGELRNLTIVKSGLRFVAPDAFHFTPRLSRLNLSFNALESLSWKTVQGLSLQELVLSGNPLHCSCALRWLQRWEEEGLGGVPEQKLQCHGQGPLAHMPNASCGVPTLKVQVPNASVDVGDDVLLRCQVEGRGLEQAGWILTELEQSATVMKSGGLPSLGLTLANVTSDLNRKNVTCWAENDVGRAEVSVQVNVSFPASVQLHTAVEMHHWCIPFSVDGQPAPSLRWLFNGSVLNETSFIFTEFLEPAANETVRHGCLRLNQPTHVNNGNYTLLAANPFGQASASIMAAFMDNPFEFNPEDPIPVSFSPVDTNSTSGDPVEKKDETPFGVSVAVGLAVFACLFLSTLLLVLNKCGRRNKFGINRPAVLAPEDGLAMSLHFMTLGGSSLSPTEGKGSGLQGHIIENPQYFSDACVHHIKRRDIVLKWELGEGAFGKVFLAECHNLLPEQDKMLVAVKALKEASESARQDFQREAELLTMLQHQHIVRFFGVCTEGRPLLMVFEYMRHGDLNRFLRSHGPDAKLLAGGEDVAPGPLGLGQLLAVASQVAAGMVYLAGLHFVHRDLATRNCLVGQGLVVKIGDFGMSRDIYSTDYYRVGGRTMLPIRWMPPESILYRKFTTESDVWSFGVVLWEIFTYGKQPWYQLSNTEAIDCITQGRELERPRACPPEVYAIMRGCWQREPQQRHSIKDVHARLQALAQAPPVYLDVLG
# [5] = target: Serine/threonine-protein kinase MARK1 (Homo sapiens) (UniProt Q9P0L2); assay: Inhibition of MARK1 assessed as residual activity at 10 uM using [33P-ATP] by radiometric filter binding assay
# Chain of Serine/threonine-protein kinase MARK1 (Homo sapiens) (Q9P0L2 whole entry, looked up): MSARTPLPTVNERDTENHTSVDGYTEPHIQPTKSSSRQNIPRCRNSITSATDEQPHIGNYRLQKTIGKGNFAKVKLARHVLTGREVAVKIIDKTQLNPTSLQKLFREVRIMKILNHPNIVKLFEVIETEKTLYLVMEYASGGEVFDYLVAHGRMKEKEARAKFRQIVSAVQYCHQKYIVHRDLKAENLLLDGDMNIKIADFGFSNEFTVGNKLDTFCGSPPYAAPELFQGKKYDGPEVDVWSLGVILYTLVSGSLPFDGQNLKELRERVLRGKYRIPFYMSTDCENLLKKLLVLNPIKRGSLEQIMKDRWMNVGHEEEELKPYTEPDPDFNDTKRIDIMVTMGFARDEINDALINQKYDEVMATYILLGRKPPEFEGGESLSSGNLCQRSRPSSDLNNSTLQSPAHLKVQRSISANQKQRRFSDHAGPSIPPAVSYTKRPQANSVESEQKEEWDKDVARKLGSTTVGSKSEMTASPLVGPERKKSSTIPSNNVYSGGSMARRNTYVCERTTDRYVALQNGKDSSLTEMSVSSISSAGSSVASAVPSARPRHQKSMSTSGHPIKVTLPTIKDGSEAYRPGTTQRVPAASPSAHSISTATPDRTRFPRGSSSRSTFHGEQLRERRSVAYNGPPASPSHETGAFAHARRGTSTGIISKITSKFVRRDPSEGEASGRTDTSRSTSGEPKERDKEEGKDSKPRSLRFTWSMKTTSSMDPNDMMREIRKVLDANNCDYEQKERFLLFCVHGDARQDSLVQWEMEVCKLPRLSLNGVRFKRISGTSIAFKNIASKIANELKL
# [6] = target: Mitogen-activated protein kinase kinase kinase 7 (Homo sapiens) (UniProt O43318); assay: Inhibition of TAK1 assessed as residual activity at 10 uM using [33P-ATP] by radiometric filter binding assay
# [7] = target: Protein kinase C gamma type (Homo sapiens) (UniProt P05129); assay: Inhibition of PKCgamma assessed as residual activity at 10 uM using [33P-ATP] by radiometric filter binding assay
# [8] = target: Serine/threonine-protein kinase PLK1 (Homo sapiens) (UniProt P53350); assay: Inhibition of PLK1 assessed as residual activity at 10 uM using [33P-ATP] by radiometric filter binding assay
# [9] = target: Ephrin type-B receptor 3 (Homo sapiens) (UniProt P54753); assay: Inhibition of EPHB3 assessed as residual activity at 10 uM using [33P-ATP] by radiometric filter binding assay
# [10] = target: Calcium/calmodulin-dependent protein kinase kinase 2 (Homo sapiens) (UniProt Q96RR4); assay: Inhibition of CAMKKbeta assessed as residual activity at 10 uM using [33P-ATP] by radiometric filter binding assay
# [11] = target: Aurora kinase A (Homo sapiens) (UniProt O14965); assay: Inhibition of aurora-A assessed as residual activity at 10 uM using [33P-ATP] by radiometric filter binding assay
# [12] = target: Serine/threonine-protein kinase 33 (Homo sapiens) (UniProt Q9BYT3); assay: Inhibition of STK33 assessed as residual activity at 10 uM using [33P-ATP] by radiometric filter binding assay
# [13] = target: Dual specificity mitogen-activated protein kinase kinase 1 (Homo sapiens) (UniProt Q02750); assay: Inhibition of MKK1 assessed as residual activity at 10 uM using [33P-ATP] by radiometric filter binding assay
# Chain of Dual specificity mitogen-activated protein kinase kinase 1 (Homo sapiens) (Q02750 whole entry): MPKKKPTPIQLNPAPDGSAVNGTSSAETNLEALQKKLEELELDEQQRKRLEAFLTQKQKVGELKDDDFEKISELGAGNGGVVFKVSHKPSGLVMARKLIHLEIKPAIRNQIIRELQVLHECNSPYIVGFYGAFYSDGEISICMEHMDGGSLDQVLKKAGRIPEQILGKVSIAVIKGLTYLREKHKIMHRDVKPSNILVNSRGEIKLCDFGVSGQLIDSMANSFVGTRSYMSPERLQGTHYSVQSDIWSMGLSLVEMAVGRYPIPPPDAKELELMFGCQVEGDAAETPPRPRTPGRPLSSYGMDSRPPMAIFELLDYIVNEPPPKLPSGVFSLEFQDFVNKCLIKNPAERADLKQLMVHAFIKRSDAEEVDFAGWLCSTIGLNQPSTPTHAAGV
# [14] = target: Serine/threonine-protein kinase STK11 (Homo sapiens) (UniProt Q15831); assay: Inhibition of LKB1 assessed as residual activity at 10 uM using [33P-ATP] by radiometric filter binding assay
# [15] = target: Serine/threonine-protein kinase TBK1 (Homo sapiens) (UniProt Q9UHD2); assay: Inhibition of TBK1 assessed as residual activity at 10 uM using [33P-ATP] by radiometric filter binding assay
# Chain of Serine/threonine-protein kinase TBK1 (Homo sapiens) (Q9UHD2 whole entry): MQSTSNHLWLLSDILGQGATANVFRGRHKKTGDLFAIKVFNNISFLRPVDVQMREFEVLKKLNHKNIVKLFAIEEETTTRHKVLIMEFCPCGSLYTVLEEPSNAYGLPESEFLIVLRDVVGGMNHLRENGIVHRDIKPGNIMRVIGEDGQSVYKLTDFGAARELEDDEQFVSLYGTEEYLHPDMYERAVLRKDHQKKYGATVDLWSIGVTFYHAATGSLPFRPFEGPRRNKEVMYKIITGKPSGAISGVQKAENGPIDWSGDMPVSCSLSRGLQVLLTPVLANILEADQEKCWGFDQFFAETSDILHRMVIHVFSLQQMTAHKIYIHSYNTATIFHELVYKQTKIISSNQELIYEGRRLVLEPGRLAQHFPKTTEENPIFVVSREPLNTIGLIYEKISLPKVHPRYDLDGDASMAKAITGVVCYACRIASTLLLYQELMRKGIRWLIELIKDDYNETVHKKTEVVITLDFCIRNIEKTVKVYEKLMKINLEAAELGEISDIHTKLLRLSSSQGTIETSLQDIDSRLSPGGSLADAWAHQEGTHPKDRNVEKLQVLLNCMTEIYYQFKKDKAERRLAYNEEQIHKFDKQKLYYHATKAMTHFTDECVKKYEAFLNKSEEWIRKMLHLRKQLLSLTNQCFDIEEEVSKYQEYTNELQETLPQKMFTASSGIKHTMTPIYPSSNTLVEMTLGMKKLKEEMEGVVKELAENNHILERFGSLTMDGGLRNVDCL
# [16] = target: Serine/threonine-protein kinase PAK 2 (Homo sapiens) (UniProt Q13177); assay: Inhibition of PAK2 assessed as residual activity at 10 uM using [33P-ATP] by radiometric filter binding assay
# [17] = target: RAC-alpha serine/threonine-protein kinase (Homo sapiens) (UniProt P31749); assay: Inhibition of PKBalpha assessed as residual activity at 10 uM using [33P-ATP] by radiometric filter binding assay
# [18] = target: Mitogen-activated protein kinase 9 (Homo sapiens) (UniProt P45984); assay: Inhibition of JNK2 assessed as residual activity at 10 uM using [33P-ATP] by radiometric filter binding assay
# Chain of Mitogen-activated protein kinase 9 (Homo sapiens) (P45984 whole entry, looked up): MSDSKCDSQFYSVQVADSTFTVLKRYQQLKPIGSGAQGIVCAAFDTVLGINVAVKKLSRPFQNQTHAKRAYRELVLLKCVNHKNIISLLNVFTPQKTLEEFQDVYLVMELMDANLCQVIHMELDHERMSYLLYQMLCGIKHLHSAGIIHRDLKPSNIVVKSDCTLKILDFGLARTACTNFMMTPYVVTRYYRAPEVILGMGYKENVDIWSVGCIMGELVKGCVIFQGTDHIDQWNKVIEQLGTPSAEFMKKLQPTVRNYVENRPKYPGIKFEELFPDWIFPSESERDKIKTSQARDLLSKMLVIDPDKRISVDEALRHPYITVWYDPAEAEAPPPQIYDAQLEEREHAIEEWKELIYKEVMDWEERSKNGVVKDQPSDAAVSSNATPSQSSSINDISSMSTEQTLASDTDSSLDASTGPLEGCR
# [19] = target: Protein kinase C zeta type (Homo sapiens) (UniProt Q05513); assay: Inhibition of PKCzeta assessed as residual activity at 10 uM using [33P-ATP] by radiometric filter binding assay
# [20] = target: Myosin light chain kinase, smooth muscle (Homo sapiens) (UniProt Q15746); assay: Inhibition of SmMLCK assessed as residual activity at 10 uM using [33P-ATP] by radiometric filter binding assay
# [21] = target: Mitogen-activated protein kinase 13 (Homo sapiens) (UniProt O15264); assay: Inhibition of p38delta MAPK assessed as residual activity at 10 uM using [33P-ATP] by radiometric filter binding assay
# Chain of Mitogen-activated protein kinase 13 (Homo sapiens) (O15264 whole entry): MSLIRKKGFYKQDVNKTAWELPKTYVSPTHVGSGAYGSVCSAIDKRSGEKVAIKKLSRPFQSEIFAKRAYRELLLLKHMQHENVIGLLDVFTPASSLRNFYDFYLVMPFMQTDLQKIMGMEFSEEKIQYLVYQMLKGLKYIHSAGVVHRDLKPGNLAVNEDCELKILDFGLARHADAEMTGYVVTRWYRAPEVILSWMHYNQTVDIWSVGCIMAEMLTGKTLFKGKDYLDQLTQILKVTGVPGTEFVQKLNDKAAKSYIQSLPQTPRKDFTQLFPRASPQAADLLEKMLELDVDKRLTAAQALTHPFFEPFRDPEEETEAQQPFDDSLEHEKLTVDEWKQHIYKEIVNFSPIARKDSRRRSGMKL
# [22] = target: Serine/threonine-protein kinase tousled-like 1 (Homo sapiens) (UniProt Q9UKI8); assay: Inhibition of TLK1 assessed as residual activity at 10 uM using [33P-ATP] by radiometric filter binding assay
# [23] = target: Insulin receptor (Homo sapiens) (UniProt P06213); assay: Inhibition of IR assessed as residual activity at 10 uM using [33P-ATP] by radiometric filter binding assay
# [24] = Inhibition of CK2 assessed as residual activity at 10 uM using [33P-ATP] by radiometric filter binding assay
# [25] = target: Ephrin type-B receptor 2 (Homo sapiens) (UniProt P29323); assay: Inhibition of EPHB2 assessed as residual activity at 10 uM using [33P-ATP] by radiometric filter binding assay
# [26] = target: Insulin-like growth factor 1 receptor (Homo sapiens) (UniProt P08069); assay: Inhibition of IGF-1R assessed as residual activity at 10 uM using [33P-ATP] by radiometric filter binding assay
# [27] = target: Serine/threonine-protein kinase PAK 4 (Homo sapiens) (UniProt O96013); assay: Inhibition of PAK4 assessed as residual activity at 10 uM using [33P-ATP] by radiometric filter binding assay
# [28] = target: Casein kinase I isoform alpha (Homo sapiens) (UniProt P48729); assay: Inhibition of CK1 assessed as residual activity at 10 uM using [33P-ATP] by radiometric filter binding assay
# [29] = target: MAP kinase-interacting serine/threonine-protein kinase 1 (Homo sapiens) (UniProt Q9BUB5); assay: Inhibition of MNK1 assessed as residual activity at 10 uM using [33P-ATP] by radiometric filter binding assay
# Chain of MAP kinase-interacting serine/threonine-protein kinase 1 (Homo sapiens) (Q9BUB5 whole entry, looked up): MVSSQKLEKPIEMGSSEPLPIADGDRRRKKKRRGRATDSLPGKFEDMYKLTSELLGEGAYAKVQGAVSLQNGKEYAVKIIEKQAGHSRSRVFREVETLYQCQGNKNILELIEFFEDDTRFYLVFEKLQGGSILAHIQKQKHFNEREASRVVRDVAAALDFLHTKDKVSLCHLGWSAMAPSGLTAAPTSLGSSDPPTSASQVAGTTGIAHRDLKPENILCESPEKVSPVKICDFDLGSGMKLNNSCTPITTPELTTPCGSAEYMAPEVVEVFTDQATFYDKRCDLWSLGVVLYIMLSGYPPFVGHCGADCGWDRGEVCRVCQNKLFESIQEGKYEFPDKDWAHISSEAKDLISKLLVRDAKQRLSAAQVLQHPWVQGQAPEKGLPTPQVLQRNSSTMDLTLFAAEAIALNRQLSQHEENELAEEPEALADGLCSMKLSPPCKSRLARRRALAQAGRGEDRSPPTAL
# [30] = target: Aurora kinase B (Homo sapiens) (UniProt Q96GD4); assay: Inhibition of aurora-B assessed as residual activity at 10 uM using [33P-ATP] by radiometric filter binding assay
# Chain of Aurora kinase B (Homo sapiens) (Q96GD4 whole entry): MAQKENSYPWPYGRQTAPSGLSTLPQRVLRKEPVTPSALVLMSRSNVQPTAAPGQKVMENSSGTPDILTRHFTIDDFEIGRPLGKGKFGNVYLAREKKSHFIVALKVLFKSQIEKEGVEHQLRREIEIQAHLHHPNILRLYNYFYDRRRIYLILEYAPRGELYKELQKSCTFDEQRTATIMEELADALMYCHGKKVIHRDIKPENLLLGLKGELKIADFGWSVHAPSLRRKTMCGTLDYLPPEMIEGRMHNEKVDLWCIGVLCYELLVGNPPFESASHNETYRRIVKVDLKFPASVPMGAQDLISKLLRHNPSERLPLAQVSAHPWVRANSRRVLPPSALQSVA
# [31] = target: Mitogen-activated protein kinase 11 (Homo sapiens) (UniProt Q15759); assay: Inhibition of p38beta MAPK assessed as residual activity at 10 uM using [33P-ATP] by radiometric filter binding assay
# [32] = target: NUAK family SNF1-like kinase 1 (Homo sapiens) (UniProt O60285); assay: Inhibition of NUAK1 assessed as residual activity at 10 uM using [33P-ATP] by radiometric filter binding assay
# [33] = target: RAC-beta serine/threonine-protein kinase (Homo sapiens) (UniProt P31751); assay: Inhibition of PKBbeta assessed as residual activity at 10 uM using [33P-ATP] by radiometric filter binding assay
smiles,measurement,setting,value
Cc1ccc(F)cc1-c1nc2[nH]nc(N)c2c2c1CCCC2,Activity,[1],45%
same,Activity,[2],60%
same,Activity,[3],82%
same,Activity,[4],45%
same,Activity,[5],86%
same,Activity,[6],96%
same,Activity,[7],108%
same,Activity,[8],93%
same,Activity,[9],7%
same,Activity,[10],89%
same,Activity,[11],68%
same,Activity,[12],97%
same,Activity,[13],29%
same,Activity,[14],52%
same,Activity,[15],107%
same,Activity,[16],79%
same,Activity,[17],79%
same,Activity,[18],88%
same,Activity,[19],106%
same,Activity,[20],63%
same,Activity,[21],100%
same,Activity,[22],99%
same,Activity,[23],83%
same,Activity,[24],93%
same,Activity,[25],4%
same,Activity,[26],71%
same,Activity,[27],82%
same,Activity,[28],96%
same,Activity,[29],78%
same,Activity,[30],49%
same,Activity,[31],25%
same,Activity,[32],79%
same,Activity,[33],77%
